Data as given in BindingDB's records for doi:10.1021/jm00403a011 (Bristol Myers Squibb, 1988).

Target: D(2) dopamine receptor (Rattus norvegicus, UniProt P61169)
Test: ChEBML_61437
Protocol: In vitro antagonistic activity against Dopamine receptor D2 was evaluated for the inhibition of [3H]spiperone binding

Chain of D(2) dopamine receptor (P61169 whole entry): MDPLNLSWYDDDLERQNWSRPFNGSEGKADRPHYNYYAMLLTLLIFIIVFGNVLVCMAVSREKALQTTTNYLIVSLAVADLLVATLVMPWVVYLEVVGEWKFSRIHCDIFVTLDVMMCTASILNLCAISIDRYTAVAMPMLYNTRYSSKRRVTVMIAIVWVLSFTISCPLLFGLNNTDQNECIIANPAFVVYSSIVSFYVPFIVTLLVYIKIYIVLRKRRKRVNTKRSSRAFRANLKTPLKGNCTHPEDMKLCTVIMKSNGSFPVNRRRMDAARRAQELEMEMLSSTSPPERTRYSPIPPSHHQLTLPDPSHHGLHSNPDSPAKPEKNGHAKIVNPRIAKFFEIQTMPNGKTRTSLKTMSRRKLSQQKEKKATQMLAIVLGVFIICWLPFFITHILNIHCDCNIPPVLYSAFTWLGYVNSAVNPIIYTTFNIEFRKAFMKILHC

| IC50 [nM] | SMILES |
| --- | --- |
| > 1000 | CCN(CC)CCNC(=O)c1cc(Cl)c(N)cc1OC(C)C(C)N=O (configuration not stated) [4-Amino-5-chloro-N-(2-diethylamino-ethyl)-2-(2-hydroxyimino-1-methyl-propoxy)-benzamide] |
| > 1000 | CCN(CC)CCNC(=O)c1cc(Cl)c(N)cc1OCC(C)N=O (configuration not stated) [4-Amino-5-chloro-N-(2-diethylamino-ethyl)-2-(2-hydroxyimino-propoxy)-benzamide] |
